Data from patent US9233164B2, “Water soluble fullerene formulations and methods of use thereof” (BOARD OF REGENTS OF THE UNIVERSITY OF NEBRASKA, priority 2011, dated 2016).

Tested on: superoxide
Experiment: Cell-free superoxide scavenging by EPR spectroscopy (HX+XO or FMN source, CMH spin probe)
Format: biochemical
Conditions: 400 U/ml SOD1
Procedure: The ability of C60-polymer complexes to scavenge superoxide was measured by EPR spectroscopy, as reported (Rosenbaugh et al. (2010) Biomaterials 31:5218-26). Briefly, superoxide generated by HX—XO or a photosensitizer, FMN, was detected using the CMH spin probe. Samples contained 0.025 mM DF and 0.005 mM DETC buffer (pH 7.4), 0.025 mM CMH, 0.025 mM HX and 10 mU XO (or 0.02 mM FMN instead of HX—XO) and C60-polymer complexes at different concentrations. After complete mixing, each sample was incubated at r.t. for 5 minutes and 50 μl of the sample was loaded into a glass capillary, which was then inserted into the capillary holder of the EPR spectrometer. The CMH radical signal was recorded and EPR spectrum amplitude was quantified.

superoxide dismutase [SOD1]
Effect on EPR spectrum: completely abolished the EPR spectrum
